The values below come from patent US9187450B2, “Substituted pyridine compound” (Daiichi Sankyo Company, Limited, priority 2010, dated 2015).

Each structure is given as a SMILES string.

Sequence of recombinant human CETP protein (P11597 18-493): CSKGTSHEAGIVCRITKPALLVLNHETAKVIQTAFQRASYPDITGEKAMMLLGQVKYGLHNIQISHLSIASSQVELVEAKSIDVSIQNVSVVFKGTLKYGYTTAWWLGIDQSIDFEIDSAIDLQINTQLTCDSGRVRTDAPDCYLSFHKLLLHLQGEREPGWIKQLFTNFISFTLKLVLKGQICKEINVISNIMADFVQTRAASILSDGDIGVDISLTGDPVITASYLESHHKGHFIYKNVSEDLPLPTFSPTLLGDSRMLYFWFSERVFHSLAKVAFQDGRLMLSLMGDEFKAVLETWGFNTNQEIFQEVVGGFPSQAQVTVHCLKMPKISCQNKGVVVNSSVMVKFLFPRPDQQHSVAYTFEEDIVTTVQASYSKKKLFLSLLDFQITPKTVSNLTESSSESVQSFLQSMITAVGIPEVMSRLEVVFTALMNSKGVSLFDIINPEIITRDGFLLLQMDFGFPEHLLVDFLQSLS

This assay addresses recombinant human CETP protein (Homo sapiens (Human), UniProt P11597). As to the kind of experiment: Test of CETP inhibition activity (in vitro, buffer-based). It counts as biochemical. The settings on record: reconstituted HDL with [14C]-labeled cholesteryl ester, acceptor lipoprotein, 37° C. As for the experimental part: Test of CETP Inhibition Activity (In Vitro, Buffer-Based)
(1) Preparation of Reconstituted HDL
Cholesterol (1.125 μmol), phosphatidyl choline (4.5 μmol) and [^14C]-labeled cholesteryl ester (2.0 μCi; 40 μl) were taken in a glass test tube and well mixed with a vortex, and dried under a nitrogen gas current so that it formed a thin film. The obtained mixture was dissolved in ethanol (200 μl), which was designated as Solution A. A PBS solution [a mixed solution of Na2HPO4 (30 mM), KH2PO4 (8.8 mM), NaCl (60 mM) and EDTA (pH 7.4; 0.67 mM); 4 ml] was taken in a tube and the reaction solution was vigorously stirred with a vortex under a nitrogen current. The above-described Solution A was gently injected into this mixture with a syringe and the reaction solution was vigorously stirred with a vortex for 5 minutes under a nitrogen current. Sodium cholate ([…]; 0.38 ml) was added to the obtained mixture and the reaction solution was stirred for 2 minutes. ApoA-I protein (3 mg) was added to the obtained mixture and the reaction solution was stirred for 2 minutes. The obtained mixture was adjusted to 5 ml with the PBS solution and then dialyzed with the PBS solution. The obtained mixture was designated as the reconstituted HDL.
(2) Preparation of Acceptor Lipoprotein
NaBr was added to the plasma of a healthy person and the density of the mixture was adjusted to 1.019, and the mixture was subjected to density gradient centrifugation (40000 rpm, for 16 hours) to remove the fraction having a density of less than 1.019. NaBr was added to the obtained mixture and the density of the solution was adjusted to 1.063, and the solution was subjected to density gradient centrifugation (40000 rpm, 18 hours) to provide the fraction consisting of IDL (intermediate density lipoprotein) and LDL (1.019<density<1.063). The obtained fraction was dialyzed with the PBS solution. The obtained mixture was designated as the acceptor lipoprotein.
(3) Measurement of CETP Inhibition Activity
A recombinant human CETP protein (manufactured by Roar Biomedical Inc.; 4.5 ng), the acceptor lipoprotein described in (2) above (32.5 μg) and 5,5′-dithio-bis-(2-nitrobenzoic acid) (7 mM, 15 μl) were taken in a 96 well plate and the total amount of the mixture was adjusted to 48.5 μl with the PBS solution. The test compound [DMSO solution (concentration: 0.15, 0.5, 1.5, 5, 15, 50, 150 and 500 μM; 1.5 μl] was added to each well and the mixture was incubated in a thermostatic bath at 37° C. for 60 minutes. The reconstituted HDL (50 μl) described in (1) above was added to each well and the mixture was reacted in a thermostatic bath at 37° C. for 60 minutes. The 96 well plate was moved onto ice and a precipitation reagent [a mixed solution of magnesium chloride (60 mM) and 0.1% dextran sulfate [1/1 (v/v)]; 15 μl] was added to each well, and then the mixture was allowed to stand on ice for 15 minutes. The reaction solution (80 μl) in each well was moved to a filter plate and centrifuged at 1500 rpm for 1 minute, and the filtrate which passed through the filter was designated as the HDL fraction and the radioactivity thereof was measured with a scintillation counter. The percentage decrease in radioactivity in the case where the test compound was added in comparison with that in case where the test compound was not added was designated as the percentage CETP inhibition. The IC50 value was calculated from the percentage CETP inhibition.
Consider `CC1(C)Cc2nc(C3CCN(c4ncccn4)CC3)c([C@@H](F)c3ccc(C(F)(F)F)cc3)c(C3CCC(F)(F)CC3)c2[C@@H](O)C1` (single isomer, unassigned) [Example 1, (−)-4-(4,4-Difluorocyclohexyl)-3-{fluoro[4-(trifluoromethyl)phenyl]methyl}-7,7-dimethyl-2-[1-(pyrimidin-2-yl)-piperidin-4-yl]-5,6,7,8-tetrahydroquinolin-5-ol], for which the IC50 came out at 0.083 µM.
As to `COc1cnc(N2CCC(c3nc4c(c(C5CCC(F)(F)CC5)c3[C@@H](F)c3ccc(C(F)(F)F)cc3)[C@@H](O)CC(C)(C)C4)CC2)nc1` (single isomer, unassigned) [Example 3, (−)-4-(4,4-Difluorocyclohexyl)-3-{fluoro[4-(trifluoromethyl)phenyl]methyl}-2-[1-(5-methoxypyrimidin-2-yl)piperidin-4-yl]-7,7-dimethyl-5,6,7,8-tetrahydroquinolin-5-ol], the concentration for half-maximal inhibition (IC50) was 0.051 µM.
As for `CC1(C)Cc2nc(C3CCN(c4ncc(O)cn4)CC3)c([C@@H](F)c3ccc(C(F)(F)F)cc3)c(C3CCC(F)(F)CC3)c2[C@@H](O)C1` (single isomer, unassigned) [Example 4, (−)-4-(4,4-Difluorocyclohexyl)-3-{fluoro[4-(trifluoromethyl)phenyl]methyl}-2-[1-(5-hydroxypyrimidin-2-yl)piperidin-4-yl]-7,7-dimethyl-5,6,7,8-tetrahydroquinolin-5-ol], the concentration for half-maximal inhibition (IC50) is 0.073 µM.
On to `CC1(C)Cc2nc(C3CCN(c4ncc(N5CCOCC5)cn4)CC3)c([C@@H](F)c3ccc(C(F)(F)F)cc3)c(C3CCC(F)(F)CC3)c2[C@@H](O)C1` (single isomer, unassigned) [Example 5, (−)-4-(4,4-Difluorocyclohexyl)-3-{fluoro[4-(trifluoromethyl)phenyl]methyl}-7,7-dimethyl-2-{1-[5-(morpholin-4-yl)pyrimidin-2-yl]piperidin-4-yl}-5,6,7,8-tetrahydroquinolin-5-ol], for which the IC50 was 0.25 µM.
For `CC1(C)Cc2nc(C3CCN(c4ncc(N5CCCCC5)cn4)CC3)c([C@@H](F)c3ccc(C(F)(F)F)cc3)c(C3CCC(F)(F)CC3)c2[C@@H](O)C1` (single isomer, unassigned) [Example 6, (−)-4-(4,4-Difluorocyclohexyl)-3-{fluoro[4-(trifluoromethyl)phenyl]methyl}-7,7-dimethyl-2-{1-[5-(piperidin-1-yl)pyrimidin-2-yl]piperidin-4-yl}-5,6,7,8-tetrahydroquinolin-5-ol], the 50% inhibitory concentration (IC50) was found to be 0.066 µM.
To `CN1CCN(c2cnc(N3CCC(c4nc5c(c(C6CCC(F)(F)CC6)c4[C@@H](F)c4ccc(C(F)(F)F)cc4)[C@@H](O)CC(C)(C)C5)CC3)nc2)CC1` (single isomer, unassigned) [Example 8, (−)-4-(4,4-Difluorocyclohexyl)-3-{fluoro[4-(trifluoromethyl)phenyl]methyl}-7,7-dimethyl-2-{1-[5-(4-methylpiperazin-1-yl)pyrimidin-2-yl]piperidin-4-yl}-5,6,7,8-tetrahydroquinolin-5-ol] belongs 0.019 µM.
With `CC1(C)Cc2nc(C3CCN(c4ncc(N5CCSCC5)cn4)CC3)c([C@@H](F)c3ccc(C(F)(F)F)cc3)c(C3CCC(F)(F)CC3)c2[C@@H](O)C1` (single isomer, unassigned) [Example 9, (−)-4-(4,4-Difluorocyclohexyl)-3-{fluoro[4-(trifluoromethyl)phenyl]methyl}-7,7-dimethyl-2-{1-[5-(thiomorpholin-4-yl)pyrimidin-2-yl]piperidin-4-yl}-5,6,7,8-tetrahydroquinolin-5-ol], the IC50 was 0.122 µM.
Take `CC1(C)Cc2nc(C3CCN(c4ncc(N5CCC(O)CC5)cn4)CC3)c([C@@H](F)c3ccc(C(F)(F)F)cc3)c(C3CCC(F)(F)CC3)c2[C@@H](O)C1` (single isomer, unassigned) [Example 11, (−)-4-(4,4-Difluorocyclohexyl)-3-{fluoro[4-(trifluoromethyl)phenyl]methyl}-2-{1-[5-(4-hydroxypiperidin-1-yl)pyrimidin-2-yl]piperidin-4-yl}-7,7-dimethyl-5,6,7,8-tetrahydroquinolin-5-ol]: the 50% inhibitory concentration (IC50) was found to be 0.046 µM.
Take `CC(C)c1cnc(N2CCC(c3nc4c(c(C5CCC(F)(F)CC5)c3[C@@H](F)c3ccc(C(F)(F)F)cc3)[C@@H](O)CC(C)(C)C4)CC2)nc1` (single isomer, unassigned) [Example 12, 4-(4,4-Difluorocyclohexyl)-3-{fluoro[4-(trifluoromethyl)phenyl]methyl}-7,7-dimethyl-2-{1-[5-(propan-2-yl)pyrimidin-2-yl]piperidin-4-yl}-5,6,7,8-tetrahydroquinolin-5-ol]: the 50% inhibitory concentration (IC50) amounted to 0.103 µM.
For `CC(C)Oc1cnc(N2CCC(c3nc4c(c(C5CCC(F)(F)CC5)c3[C@@H](F)c3ccc(C(F)(F)F)cc3)[C@@H](O)CC(C)(C)C4)CC2)nc1` (single isomer, unassigned) [Example 14, (−)-4-(4,4-Difluorocyclohexyl)-3-{fluoro[4-(trifluoromethyl)phenyl]methyl}-7,7-dimethyl-2-{1-[5-(propan-2-yloxy)pyrimidin-2-yl]piperidin-4-yl}-5,6,7,8-tetrahydroquinolin-5-ol], the concentration for half-maximal inhibition (IC50) was determined as 0.097 µM.
As for `CCCCCc1cnc(N2CCC(c3nc4c(c(C5CCC(F)(F)CC5)c3[C@@H](F)c3ccc(C(F)(F)F)cc3)[C@@H](O)CC(C)(C)C4)CC2)nc1` (single isomer, unassigned) [Example 16, (−)-4-(4,4-Difluorocyclohexyl)-3-{fluoro[4-(trifluoromethyl)phenyl]methyl}-7,7-dimethyl-2-[1-(5-pentylpyrimidin-2-yl)piperidin-4-yl]-5,6,7,8-tetrahydroquinolin-5-ol], the IC50 stood at 0.243 µM.
`CC1(C)Cc2nc(C3CCN(c4ncc(C#N)cn4)CC3)c([C@@H](F)c3ccc(C(F)(F)F)cc3)c(C3CCC(F)(F)CC3)c2[C@@H](O)C1` (single isomer, unassigned) [Example 17, (−)-2-[1-(5-cyanopyrimidine-2-yl)piperidin-4-yl]-4-(4,4-difluorocyclohexyl)-3-{fluoro[4-(trifluoromethyl)phenyl]methyl}-7,7-dimethyl-5,6,7,8-tetrahydroquinoline-5-ol]: the concentration for half-maximal inhibition (IC50) was 0.217 µM.
Turning to `CC1(C)Cc2nc(C3CCN(c4ncc(C5=CCCCC5)cn4)CC3)c([C@@H](F)c3ccc(C(F)(F)F)cc3)c(C3CCC(F)(F)CC3)c2[C@@H](O)C1` (single isomer, unassigned) [Example 18, (−)-2-{1-[5-(Cyclohex-1-ene-1-yl)pyrimidin-2-yl]piperidin-4-yl}-4-(4,4-difluorocyclohexyl)-3-{fluoro[4-(trifluoromethyl)phenyl]methyl}-7,7-dimethyl-5,6,7,8-tetrahydroquinolin-5-ol], the IC50 was found to be 0.177 µM.
Take `CC1(C)Cc2nc(C3CCN(c4ncc(C5CC5)cn4)CC3)c([C@@H](F)c3ccc(C(F)(F)F)cc3)c(C3CCC(F)(F)CC3)c2[C@@H](O)C1` (single isomer, unassigned) [Example 19, (−)-2-[1-(5-Cyclopropylpyrimidin-2-yl)piperidin-4-yl]-4-(4,4-difluorocyclohexyl)-3-{fluoro[4-(trifluoromethyl)phenyl]methyl}-7,7-dimethyl-5,6,7,8-tetrahydroquinolin-5-ol]: the IC50 was 0.198 µM.
